Reference: US6893858B2, “Human kcnq5 potassium channel, methods and compositions thereof” (Bristol-Myers Squibb Company, priority 2000, dated 2005)

Target: hKCNQ5 (Homo sapiens, UniProt Q9NR82)
Sequence (Q9NR82 36-932): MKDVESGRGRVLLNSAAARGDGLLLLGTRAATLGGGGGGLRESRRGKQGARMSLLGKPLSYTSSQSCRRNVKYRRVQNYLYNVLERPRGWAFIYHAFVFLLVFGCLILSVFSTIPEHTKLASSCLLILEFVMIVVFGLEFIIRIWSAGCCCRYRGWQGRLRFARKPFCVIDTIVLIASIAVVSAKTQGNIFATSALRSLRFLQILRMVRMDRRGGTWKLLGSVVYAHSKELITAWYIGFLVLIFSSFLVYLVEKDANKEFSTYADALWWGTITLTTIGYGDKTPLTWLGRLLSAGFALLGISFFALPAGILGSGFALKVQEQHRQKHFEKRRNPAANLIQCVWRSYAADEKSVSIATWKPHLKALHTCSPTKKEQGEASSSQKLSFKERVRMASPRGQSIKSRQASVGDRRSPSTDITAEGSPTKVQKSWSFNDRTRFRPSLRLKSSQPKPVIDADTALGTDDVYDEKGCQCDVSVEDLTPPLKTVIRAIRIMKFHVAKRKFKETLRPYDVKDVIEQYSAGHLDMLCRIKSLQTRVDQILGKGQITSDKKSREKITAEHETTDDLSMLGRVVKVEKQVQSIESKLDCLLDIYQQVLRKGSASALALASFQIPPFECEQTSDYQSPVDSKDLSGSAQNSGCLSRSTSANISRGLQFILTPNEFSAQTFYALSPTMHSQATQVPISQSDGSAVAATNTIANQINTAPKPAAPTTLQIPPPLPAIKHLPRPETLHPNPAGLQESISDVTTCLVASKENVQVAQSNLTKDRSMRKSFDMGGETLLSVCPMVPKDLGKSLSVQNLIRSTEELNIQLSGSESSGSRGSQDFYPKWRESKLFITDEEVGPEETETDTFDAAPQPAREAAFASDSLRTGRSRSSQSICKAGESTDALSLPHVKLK
Description: Frog (Xenopus laevis) oocytes were prepared and injected using standard techniques; each oocyte was injected with approximately 50 nl of hKCNQ5 cRNA. Following injection, oocytes were maintained at 17° C. in ND96 medium comprising (in mM): NaCl, 90; KCl, 1.0; CaCl2, 1.0; MgCl2, 1.0; HEPES, 5.0; pH 7.5. Horse serum (5%) and penicillin/streptomycin (5%) were added to the incubation medium. Recording commenced 2-6 days following mRNA injection. Prior to the start of an experiment, oocytes were placed in a recording chamber and incubated in Modified Barth's Solution (MBS) consisting of (in mM): NaCl, 88; NaHCO3, 2.4; KCl, 1.0; HEPES, 10; MgSO4, 0.82; Ca(NO3)2, 0.33; CaCl2, 0.41; pH 7.5. Oocytes were impaled with electrodes (1-2 MΩ) and standard 2-electrode voltage clamp techniques were employed to record whole-cell membrane currents. Voltage-clamp protocols typically consisted of a series of voltage steps 1-5 second duration, in +10 mV steps from a holding potential of −90 mV to a maximal potential of +40 mV; records were digitized at 5 kHz and stored on a computer using pClamp data acquisition and analysis software (Axon Instruments).

For `CC[N+](CC)(CC)CC` [TEA, tetraethylammonium], which “resistance of hKCNQ5 currents to the potassium channel blocker” value (hKCNQ5 cRNA expressed in Xenopus oocytes, concentrations as high as 30 mM, whole-cell outward currents) is on record?
Its value is “largely resistant”.

And the “blockage of hKCNQ5 outward currents (FIG. 8 legend)” value (hKCNQ5 expressed in Xenopus oocytes, at high concentrations)?
Its value is “resistant to blockage”.
